Measurements: patent publication EP1216043B1, “RETARD FORM CONTAINING ALPHA-LIPOIC ACID (DERIVATIVES)” (priority 1999, dated 2001)
Like-named read-outs stand apart in the source and are kept apart here.

Legend:
[1] = cited from earlier work; for Cmax / F (Bioverfügbarkeit) / t1/2 / tmax: peroral, arithmetic mean; for absolute Bioverfügbarkeit: clinical studies, range over the dosage forms of Tabelle 1
[2] = Diffusion study: diffusion of α-Liponsäure out of a dialysis vessel with/without Chitosan and Essigsäure
Excerpt: Bei der vorliegenden Diffusionsstudie wurde der Einfluss von Chitosan auf das Diffusionsverhalten von α-Liponsäure untersucht.

[3] = 200 mg (±)-Liponsäure als 200 mg-Tablette
[4] = 200 mg (±)-Liponsäure als 4x50 mg-Tabletten
[5] = 200 mg (±)-Liponsäure als Lösung

Compound | Cmax [1, 3] [ng/mL] | F (Bioverfügbarkeit) [1, 3] [%] | t1/2 [1, 3] [min] | tmax [1, 3] [min] | Cmax [1, 4] [ng/mL] | F (Bioverfügbarkeit) [1, 4] [%] | t1/2 [1, 4] [min] | tmax [1, 4] [min] | Cmax [1, 5] [ng/mL] | F (Bioverfügbarkeit) [1, 5] [%] | t1/2 [1, 5] [min] | tmax [1, 5] [min] | absolute Bioverfügbarkeit [1] | Plasma-Halbwertszeit ([1]; after peroral administration) | share of the Konzentrationsgleichgewicht reached ([2]; in presence of Chitosan, without Essigsäure, ca. 5 hours) | time until Konzentrationsgleichgewicht der α-Liponsäure innerhalb und außerhalb des Dialysegefäßes was reached ([2]; ohne Chitosan, printed as 'ca.') [Stunden]
O=C(O)CCCC[C@@H]1CCSS1 [R, R-(+)-α-Liponsäure] | 490 | 24.1 | 19.8 | 54 | 600 | 25.9 | 42.6 | 42 | 2240 | 38.2 | 14.4 | 12.6 | 24.1 - 38.2% |  |  | 
O=C(O)CCCC[C@H]1CCSS1 [S, S-(-)-α-Liponsäure] | 310 | 19.1 | 19.8 | 54 | 380 | 20.9 | 49.2 | 42 | 1320 | 28.3 | 9 | 12.6 | 19.1 - 28.3% |  |  | 
O=C(O)CCCCC1CCSS1 (racemic) [α-Liponsäure, 1,2-Dithiolan-3-pentansäure] |  |  |  |  |  |  |  |  |  |  |  |  |  | weniger als zwei Stunden | 63,8 % ± 4,3 | ≤ 5
